What was measured:
Assay type in all cases: cell-based, human
leukemic blasts = experiment: PARP cleavage (Western blot) and DNA ladder; settings: blasts of case Ph^-B-ALL #01 after α-bisabolol exposure
Method: Cells were homogenized at 4°C in 50 mM Tris-HCl (pH 8) containing 0.1% Nonidet-P40 (NP-40), 200 mM KCl, 2 mM MgCl2, 50 μM ZnCl2, 2 mM DTT, and protease inhibitors [1 mM phenylmethylsulfonyl fluoride (PMSF), 1 mg/mL leupeptin, and 1 mg/mL antipain]. Aliquots of the homogenates (40 μg total protein/lane) were loaded on SDS-polyacrylamide gels at the appropriate concentrations. Electrophoresis was performed at 100 V with a running buffer containing 0.25 M Tris-HCl (pH 8.3), 1.92 M glycine, and 1% SDS. The resolved proteins were electroblotted onto a nitrocellulose membrane using the iBlot™ system (Invitrogen, Carlsbad, CA). Membranes were then incubated with a mouse monoclonal IgG antibody to poly(ADP-ribose) polymerase (PARP) (Zymed, South San Francisco, CA), with a rabbit polyclonal IgG antibody to BID (Cell Signaling Technology, Danvers, MA) or with a rabbit polyclonal IgG antibody to α-tubulin (Cell Signaling Technology). The membranes were then washed and incubated with an anti-mouse or anti-rabbit IgG peroxidase-conjugated antibody (Cell Signaling Technology). The blots were washed again and then incubated with enhanced chemiluminescent detection reagents (Immun-Star™ WesternC™ Kit, Bio-Rad, Hercules, CA) according to the manufacturer's instructions. Proteins were detected using the ChemiDoc XRS Imaging System (Bio-Rad). […]

CD34^+ cells = experiment: Cytotoxicity in normal bone marrow cells, TruCOUNT flow cytometry; settings: for cytotoxicity: 24 hours, mean ± SD; for IC50: Homo sapiens, Bone marrow cell, 24 h, 24-hour
Method: (§1) Viable peripheral blood leukocytes and bone marrow cells from - 4 - control donors were treated and used as specified above for leukemic cells.
(§2) Cells derived from patients or normal donors were exposed for 24 hours to 20, 40, 80, and 160 μM α-bisabolol dissolved in ethanol (1:8 in order to minimize drug volumes), and when appropriate to 3 μM imatinib mesylate (Novartis, Basel, CH), representative of the in vivo active concentration. All cytotoxicity tests were performed in triplicate.
(§3) The absolute counts of normal leukocytes sub-populations were measured with TruCOUNT tubes (Becton Dickinson, San Jose, CA) by polychromatic flow cytometry according to the manufacturer's instructions with minor modifications. Peripheral blood and bone marrow cells were cultured with α-bisabolol for 24, 48, 72, 96 and 120 hours. At the end of the culture, 200 μL of sample, a mixture of antibodies (CD45 APC-H7, CD3 PE-Cy7, CD19 PE, CD14 APC for peripheral blood and CD45 APC-H7, CD34 PE, CD33 PE-Cy7 for bone marrow) and 7-amino-actinomycin D (all reagents from Becton Dickinson) for dead cells exclusion were added to the TruCOUNT tubes. After a 15-minute incubation at room temperature, 1 mL lysing reagent (Biosource, Nivelles, BE) was added for 10 minutes. A total of 40,000 beads were acquired on a FACSCanto cytometer (Becton Dickinson). A sequential Boolean gating strategy was used to accurately enumerate different populations.
(§4) Student's t-test for means, chi-squared tests, Mann-Whitney U test and Kruskall-Wallis analysis of variance by ranks were considered significant for p values < 0.05.

CD33^+my cells = experiment: as above; settings: 5 normal bone marrow samples; for cytotoxicity: 24 hours, mean ± SD
Method: as §1, §2, §3, §4

primary Ph^-B-ALL cells = experiment: 24-hour LDH release cytotoxicity assay, ex vivo blasts; settings: for cytotoxicity: 24 hours
Method: (§5) Viable leukemic cells were purified by conventional methods from freshly heparinized peripheral blood with a circulating blast count ≥30,000/mL, or from full-substituted bone marrow that was frozen in liquid nitrogen at diagnosis. In all cases frozen cell samples contained >95% blasts. Cell viability after thawing was always >90%, as assessed by trypan blue staining.
as §2
(§6) A lactate dehydrogenase (LDH) release assay was conducted as follows. Thawed cells were resuspended in RPMI-1640 (Lonza, Basel, CH) supplemented with 10% heat-inactivated fetal bovine serum (FBS, Lonza), 50 U/mL penicillin and 50 μg/mL streptomycin (complete medium, CM), seeded at a density of 2 × 10^6 cell/mL and incubated at 37°C in 5% CO2. After 24 hours, the cells were treated with α-bisabolol (or ethanol as a vehicle control) as specified above. Cytotoxicity was determined using the Cytotoxicity Detection Kit^PLUS according to the manufacturer's recommendations (Roche, Mannheim, DE). LDH leakage was measured as the ratio of treatment-induced LDH to spontaneous LDH release. α-bisabolol and imatinib mesylate data were reported as the percent cytotoxicity for treated compared to untreated cells and plotted as dose-response curves over 24 hours. The half maximal inhibitory concentration (IC50) was determined when appropriate.
as §4

AML cells = experiment: as above; settings: for cytotoxicity: 24 hours, mean ± SD
Method: as §5, §2, §6, §4

[1] = test system: primary acute leukemia cells; experiment: cells; settings: for IC50: Homo sapiens, 24 h
Method: as §2, §6
To generate a classification based on α-bisabolol sensitivity, samples were grouped using the complete linkage hierarchical clustering algorithm available in the MultiExperiment Viewer (MeV, version 4.3 - http://www.tm4.org/mev/). A heat map for sensitivity was derived using the percentage data for mortality after adding α-bisabolol with respect to spontaneous mortality at the same time.
as §4

Question: What does the source list for CC(C)=CCC[C@](C)(O)[C@@H]1CC=C(C)CC1 [α-bisabolol]?
Answer: PARP cleavage and DNA laddering (leukemic blasts): underwent PARP cleavage and DNA laddering; cytotoxicity (CD34^+ cells; CD34^+, 5 normal bone marrow samples, 20 μM α-bisabolol): 1 ± 2%; cytotoxicity (CD34^+ cells; CD34^+, 5 normal bone marrow samples, 40 μM α-bisabolol): 22 ± 19%; cytotoxicity (CD34^+ cells; CD34^+, 5 normal bone marrow samples, 80 μM α-bisabolol): 72 ± 35%; cytotoxicity (CD34^+ cells; CD34^+, 5 normal bone marrow samples, 160 μM α-bisabolol): 98 ± 1%; IC50 (CD34^+ cells; CD34^+, 5 normal bone marrow samples): 62 ± 9 µM; IC50 (CD34^+ cells; CD34^+/19^+ cells, normal bone marrow): 63 ± 4 µM; IC50 (CD34^+ cells; CD34^+/33^+ cells, normal bone marrow): 64 ± 6 µM; cytotoxicity (CD33^+my cells; 20 μM α-bisabolol): 2 ± 2%; cytotoxicity (CD33^+my cells; 40 μM α-bisabolol): 4 ± 3%; cytotoxicity (CD33^+my cells; 80 μM α-bisabolol): 40 ± 39%; cytotoxicity (CD33^+my cells; 160 μM α-bisabolol): 99 ± 1%; IC50 (CD33^+my cells; Homo sapiens, Bone marrow cell, 24-hour): 95 ± 7 µM; IC50 (primary Ph^-B-ALL cells; Homo sapiens, n 14, 24-hour): 33 ± 15 µM; cytotoxicity (primary Ph^-B-ALL cells; n 14, 20 μM α-bisabolol, mean ± SD): 37 ± 36%; cytotoxicity (primary Ph^-B-ALL cells; n 14, 40 μM α-bisabolol, mean ± SD): 55 ± 37%; cytotoxicity (primary Ph^-B-ALL cells; n 14, 80 μM α-bisabolol, mean ± SD): 87 ± 12%; cytotoxicity (primary Ph^-B-ALL cells; n 14, 160 μM α-bisabolol): 100%; IC50 (AML cells; Homo sapiens, n 14, 24-hour): 54 ± 8 µM; cytotoxicity (AML cells; n 14, 20 μM α-bisabolol): 10 ± 9%; cytotoxicity (AML cells; n 14, 40 μM α-bisabolol): 32 ± 21%; cytotoxicity (AML cells; n 14, 80 μM α-bisabolol): 72 ± 11%; cytotoxicity (AML cells; n 14, 160 μM α-bisabolol): 96 ± 4%; responsiveness of all leukemia cases ([1]; 65 μM α-bisabolol for 24 hours): eventually responsive; IC50 ([1]; cluster 1, n 8, 24-hour): 14 ± 5 µM; IC50 ([1]; cluster 2, n 19, 24-hour): 45 ± 7 µM; IC50 ([1]; cluster 3, 15 acute leukemia samples, 24-hour): 65 ± 5 µM; IC50 ([1]; cluster 3, 17: 15 acute leukemias plus CD34^+ and CD33^+my samples, 24-hour): 64 ± 5 µM
